Experimental data published in US8546357B2, “Boron-containing small molecules for controlling ectoparasites” (priority 2011, dated 2013).

Tested on: Lone star tick larvae (Amblyomma americanum)
Assay: Larval immersion microassay against larval-stage Lone star ticks
Settings: for mortality at 300 µM: Amblyomma americanum, 24 h, read-out: activity (percent larval mortality); for In vitro activity at 0.3 mM: larval immersion microassay, 24 hours
Protocol: The larval immersion microassay was conducted as described in detail in White, et al., J. Med. Entomol. 41: 1034-1042 (2004). Compounds of the invention were formulated in dimethylsulfoxide (DMSO) to prepare a stock solution at a concentration of at least 10 mM. Using 96-well microtiter plates, an aliquot of the mM sample was subsequently diluted in a water-based solution containing 1% ethanol and 0.2% Triton X-100, to obtain the desired concentration (typically 0.3 mM or lower) of compound in a volume of 0.1 ml (minimum n=3 replicates per compound or concentration). Approximately 30-50 Lone star tick larvae (Amblyomma americanum) were submerged into each well containing compounds. After a 30 minute immersion period, larvae were removed with a wide-bore pipette tip in 0.05 ml of fluid, dispensed into a commercial paper tissue biopsy bag which was sealed at the top with a plastic dialysis clip, inverted and allowed to air dry for 60 minutes. Bags containing larvae were then incubated at approximately 27 degrees Celsius and >90% relative humidity. After 24 hours, bags were opened, live and dead larvae were counted and percent larval mortality was calculated.
7 and 8 contain one chiral center each, and are racemic mixtures comprised of approximately 50% R- and 50% S-enantiomer. In vitro and surrogate animal (rat) studies were conducted to evaluate the biological activity of the R- and S-enantiomers of 7 and 8. For the in vitro study, larvae of the Lone star tick (Amblyomma americanum) were exposed to 9, 10, 11 and 12 using the larval immersion microassay at a concentration of no greater than 0.3 mM. Following exposure, larvae were removed, transferred to a tissue biopsy bag and incubated at approximately 27 degrees Celsius and >90% relative humidity. After 24 hours, biopsy bags were opened and the numbers of live and dead larvae were determined

Structure (SMILES) | mortality at 300 µM [%] | In vitro activity at 0.3 mM [%]
Cc1cc(C2=NOC(c3cc(Cl)c(Cl)c(Cl)c3)(C(F)(F)F)C2)ccc1C(=O)NCc1ccc2c(c1)C(C)(C)OB2O (centres unmarked) [Compound 1, N-((1-Hydroxy-3,3-dimethyl-1,3-dihydrobenzo[c][1,2]oxaborol-5-yl)methyl)-2-methyl-4-(5-(3,4,5-trichlorophenyl)-5-(trifluoromethyl)-4,5-dihydroisoxazol-3-yl)benzamide] | ≥ 80 | 
Cc1cc(C2=NOC(c3cc(Cl)cc(Cl)c3)(C(F)(F)F)C2)ccc1C(=O)NCc1ccc2c(c1)C(C)(C)OB2O (centres unmarked) [Compound 2, 4-(5-(3,5-Dichlorophenyl)-5-(trifluoromethyl)-4,5-dihydroisoxazol-3-yl)-N-((1-hydroxy-3,3-dimethyl-1,3-dihydrobenzo[c][1,2]oxaborol-5-yl)methyl)-2-methylbenzamide] | ≥ 80 | 
Cc1cc(C2=NOC(c3cc(Cl)cc(Cl)c3)(C(F)(F)F)C2)ccc1C(=O)NCc1ccc2c(c1)B(O)OC2 (centres unmarked) [Compound 4, 4-(5-(3,5-Dichlorophenyl)-5-(trifluoromethyl)-4,5-dihydroisoxazol-3-yl)-N-((1-hydroxy-1,3-dihydrobenzo[c][1,2]oxaborol-6-yl)methyl)-2-methylbenzamide] | ≥ 80 | 
Cc1cc(C2=NO[C@](c3cc(Cl)c(Cl)c(Cl)c3)(C(F)(F)F)C2)ccc1C(=O)NCc1ccc2c(c1)B(O)OC2(C)C [Compound 10, (R)—N-((1-hydroxy-3,3-dimethyl-1,3-dihydrobenzo[c][1,2]oxaborol-6-yl)methyl)-2-methyl-4-(5-(3,4,5-trichlorophenyl)-5-(trifluoromethyl)-4,5-dihydroisoxazol-3-yl)benzamide] |  | 0.0
Cc1cc(C2=NO[C@](c3cc(Cl)c(F)c(Cl)c3)(C(F)(F)F)C2)ccc1C(=O)NCc1ccc2c(c1)B(O)OC2(C)C [Compound 12, (R)-4-(5-(3,5-Dichloro-4-fluorophenyl)-5-(trifluoromethyl)-4,5-dihydroisoxazol-3-yl)-N-((1-hydroxy-3,3-dimethyl-1,3-dihydrobenzo[c][1,2]oxaborol-6-yl)methyl)-2-methylbenzamide] |  | 0.0
CCC1(CC)OB(O)c2cc(CNC(=O)c3ccc(C4=NOC(c5cc(Cl)cc(Cl)c5)(C(F)(F)F)C4)cc3C)ccc21 (centres unmarked) [Compound 13, 4-(5-(3,5-Dichlorophenyl)-5-(trifluoromethyl)-4,5-dihydroisoxazol-3-yl)-N-((3,3-diethyl-1-hydroxy-1,3-dihydrobenzo[c][1,2]oxaborol-6-yl)methyl)-2-methylbenzamide] | ≥ 80 | 
CCC1(CC)OB(O)c2cc(CNC(=O)c3ccc(C4=NOC(c5cc(Cl)c(F)c(Cl)c5)(C(F)(F)F)C4)cc3C)ccc21 (centres unmarked) [Compound 14, 4-(5-(3,5-Dichloro-4-fluorophenyl)-5-(trifluoromethyl)-4,5-dihydroisoxazol-3-yl)-N-((3,3-diethyl-1-hydroxy-1,3-dihydrobenzo[c][1,2]oxaborol-6-yl)methyl)-2-methylbenzamide] | ≥ 80 | 
Cc1cc(C2=NOC(c3cc(Cl)cc(Cl)c3)(C(F)(F)F)C2)ccc1C(=O)NCc1ccc2c(c1)B(O)OC2(CF)CF (centres unmarked) [Compound 16, N-((3,3-Bis(fluoromethyl)-1-hydroxy-1,3-dihydrobenzo[c][1,2]oxaborol-6-yl)methyl)-4-(5-(3,5-dichlorophenyl)-5-(trifluoromethyl)-4,5-dihydroisoxazol-3-yl)-2-methylbenzamide] | ≥ 80 | 
Cc1cc(C2=NOC(c3cc(Cl)c(Cl)c(Cl)c3)(C(F)(F)F)C2)ccc1C(=O)NCc1ccc2c(c1)B(O)OC2(CF)CF (centres unmarked) [Compound 17a, N-((3,3-Bis(fluoromethyl)-1-hydroxy-1,3-dihydrobenzo[c][1,2]oxaborol-6-yl)methyl)-2-methyl-4-(5-(3,4,5-trichlorophenyl)-5-(trifluoromethyl)-4,5-dihydroisoxazol-3-yl)benzamide] | ≥ 80 | 
Cc1cc(C2=NOC(c3cc(Cl)c(Cl)c(Cl)c3)(C(F)(F)F)C2)ccc1C(=O)NCc1ccc2c(c1)B(O)OC21CCCC1 (centres unmarked) [Compound 18, N-((1-Hydroxy-1H-spiro[benzo[c][1,2]oxaborole-3,1′-cyclopentan]-6-yl)methyl)-2-methyl-4-(5-(3,4,5-trichlorophenyl)-5-(trifluoromethyl)-4,5-dihydroisoxazol-3-yl)benzamide] | ≥ 80 | 
Cc1cc(C2=NOC(c3cc(Cl)c(Cl)c(Cl)c3)(C(F)(F)F)C2)ccc1C(=O)NCCc1ccc2c(c1)B(O)OC2(C)C (centres unmarked) [Compound 19, N-(2-(1-Hydroxy-3,3-dimethyl-1,3-dihydrobenzo[c][1,2]oxaborol-6-yl)ethyl)-2-methyl-4-(5-(3,4,5-trichlorophenyl)-5-(trifluoromethyl)-4,5-dihydroisoxazol-3-yl)benzamide] | ≥ 80 | 
Cc1cc(C2=NOC(c3cc(Cl)c(F)c(Cl)c3)(C(F)(F)F)C2)ccc1C(=O)NCCc1ccc2c(c1)B(O)OC2(C)C (centres unmarked) [Compound 20, 4-(5-(3,5-Dichloro-4-fluorophenyl)-5-(trifluoromethyl)-4,5-dihydroisoxazol-3-yl)-N-(2-(1-hydroxy-3,3-dimethyl-1,3-dihydrobenzo[c][1,2]oxaborol-6-yl)ethyl)-2-methylbenzamide] | ≥ 80 | 
Cc1cc(C2=NOC(c3cc(Cl)c(Cl)c(Cl)c3)(C(F)(F)F)C2)ccc1C(=O)NC(C)c1ccc2c(c1)B(O)OC2(C)C (centres unmarked) [Compound 22a, N-(1-(1-Hydroxy-3,3-dimethyl-1,3-dihydrobenzo[c][1,2]oxaborol-6-yl)ethyl)-2-methyl-4-(5-(3,4,5-trichlorophenyl)-5-(trifluoromethyl)-4,5-dihydroisoxazol-3-yl)benzamide] | ≥ 80 | 
Cc1cc(C2=NOC(c3cc(Cl)c(Cl)c(Cl)c3)(C(F)(F)F)C2)ccc1C(=O)NCc1cc(F)c2c(c1)B(O)OC2(C)C (centres unmarked) [Compound 24, N-((4-fluoro-1-hydroxy-3,3-dimethyl-1,3-dihydrobenzo[c][1,2]oxaborol-6-yl)methyl)-2-methyl-4-(5-(3,4,5-trichlorophenyl)-5-(trifluoromethyl)-4,5-dihydroisoxazol-3-yl)benzamide] | ≥ 80 | 
